The values below are quoted from earlier work in publication PMC6524651 (Cell chemical biology, 2018).

One data set has as its system SUMOylation. The following applies: read-out: IC50 in SUMOylation biochemical assays; among 780 assays; ref PubChem; cited from earlier work.
Another data set deals with RORγ. The following applies: read-out: IC50 in cellular assay of RORγ; among 780 assays; ref PubChem; cited from earlier work.

pIC50: −log10 of the molar value.

`C=CCC(Nc1ccccc1)C12C=CC(O1)C(C(=O)OC)=C2C(=O)OC` (centres unmarked) [CID 9549553]: the pIC50 in the data set on SUMOylation and with RORγ was more than 5.15 each time.

For orientation: pIC50 means −log10 of the IC50, conventionally taken in molar units.
